Results: ChEMBL document CHEMBL4507314 (2021)
The source made the active and inactive calls. The calls are words filed in the database; no cut-off is given here.

Legend:
[1] = target: Mitogen-activated protein kinase 11 (Homo sapiens, UniProt Q15759); assay: NanoBRET (MAPK11)
[2] = target: Heat shock protein beta-1 (Homo sapiens, UniProt P04792); assay: Inhibition of HSP27 (Ser82) (Western blot)
[3] = target: Mitogen-activated protein kinase 14 (Homo sapiens, UniProt Q16539); assay: NanoBRET (MAPK14)
Mitogen-activated protein kinase 14, sequence (Q16539 whole entry): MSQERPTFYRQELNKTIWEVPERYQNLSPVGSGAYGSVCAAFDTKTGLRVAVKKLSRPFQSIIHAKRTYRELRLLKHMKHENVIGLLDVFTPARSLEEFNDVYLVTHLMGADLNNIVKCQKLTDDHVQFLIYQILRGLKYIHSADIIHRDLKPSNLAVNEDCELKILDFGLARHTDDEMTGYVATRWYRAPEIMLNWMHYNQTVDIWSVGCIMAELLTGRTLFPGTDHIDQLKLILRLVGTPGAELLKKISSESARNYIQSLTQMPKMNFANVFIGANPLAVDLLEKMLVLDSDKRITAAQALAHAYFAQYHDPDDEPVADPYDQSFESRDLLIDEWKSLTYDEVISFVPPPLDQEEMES

Mitogen-activated protein kinase 11, sequence (Q15759 whole entry): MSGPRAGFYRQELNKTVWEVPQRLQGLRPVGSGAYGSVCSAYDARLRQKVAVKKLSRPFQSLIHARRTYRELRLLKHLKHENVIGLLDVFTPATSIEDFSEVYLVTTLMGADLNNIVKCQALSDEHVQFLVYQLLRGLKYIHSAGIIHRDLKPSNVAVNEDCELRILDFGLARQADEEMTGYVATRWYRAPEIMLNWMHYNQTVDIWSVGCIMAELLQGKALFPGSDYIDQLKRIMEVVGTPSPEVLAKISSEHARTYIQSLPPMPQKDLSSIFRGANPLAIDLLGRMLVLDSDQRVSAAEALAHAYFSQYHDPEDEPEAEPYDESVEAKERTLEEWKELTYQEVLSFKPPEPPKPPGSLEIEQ
Heat shock protein beta-1, sequence (P04792 whole entry): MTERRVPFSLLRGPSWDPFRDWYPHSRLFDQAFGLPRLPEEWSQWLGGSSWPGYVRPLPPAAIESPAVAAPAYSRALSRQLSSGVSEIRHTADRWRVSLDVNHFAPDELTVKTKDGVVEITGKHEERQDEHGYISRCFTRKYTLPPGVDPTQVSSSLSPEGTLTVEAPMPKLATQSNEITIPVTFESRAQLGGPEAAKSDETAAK

Compound	IC50 [1]	IC50 [2]	IC50 [3]
O=C(NCCN1CCOCC1)c1ccc2c(c1)C(=O)c1ccc(Nc3ccc(F)c(NC(=O)c4ccccc4)c3)cc1CC2 [FS-694]	0.0169 µM (active)	< 1 µM (active)	
CN(C(=O)c1ccccc1)c1cc(N(C)c2ccc3c(c2)CCc2ccc(C(=O)NCCN4CCOCC4)cc2C3=O)ccc1F [FM-743]	16.2 µM (not active)		11.3 µM (not active)
